Test results published in patent US20230117034A1, “PYRAZOLOTRIAZINES” (Bayer Aktiengesellschaft, priority 2019, published 2023).

Legend:
[1] = target: T1, CDK12 (nuclear staining in CAL-120 cells) (Homo sapiens, UniProt Q9NYV4); assay: CDK12 nuclear protein level: immunofluorescence/high content analysis (CAL-120); type: cell-based; settings: for DC50: CAL-120 cells, 24 h, immunofluorescence, 50% reduction of nuclear CDK12 staining intensity, median, read-out: CDK12 degradation IF, DC50- [mol/l] (median); for (IC50 CDK12 high ATP) to (Degradation DC50 CDK12) ratio: ratio of IC50 CDK12 high ATP kinase assay to DC50 CDK12 degradation (IF, CAL-120)
T1 construct: endogenous in cells; host or cells: CAL-120 human breast cancer cells (DSMZ ACC 459)
T1 sequence (Q9NYV4 whole entry): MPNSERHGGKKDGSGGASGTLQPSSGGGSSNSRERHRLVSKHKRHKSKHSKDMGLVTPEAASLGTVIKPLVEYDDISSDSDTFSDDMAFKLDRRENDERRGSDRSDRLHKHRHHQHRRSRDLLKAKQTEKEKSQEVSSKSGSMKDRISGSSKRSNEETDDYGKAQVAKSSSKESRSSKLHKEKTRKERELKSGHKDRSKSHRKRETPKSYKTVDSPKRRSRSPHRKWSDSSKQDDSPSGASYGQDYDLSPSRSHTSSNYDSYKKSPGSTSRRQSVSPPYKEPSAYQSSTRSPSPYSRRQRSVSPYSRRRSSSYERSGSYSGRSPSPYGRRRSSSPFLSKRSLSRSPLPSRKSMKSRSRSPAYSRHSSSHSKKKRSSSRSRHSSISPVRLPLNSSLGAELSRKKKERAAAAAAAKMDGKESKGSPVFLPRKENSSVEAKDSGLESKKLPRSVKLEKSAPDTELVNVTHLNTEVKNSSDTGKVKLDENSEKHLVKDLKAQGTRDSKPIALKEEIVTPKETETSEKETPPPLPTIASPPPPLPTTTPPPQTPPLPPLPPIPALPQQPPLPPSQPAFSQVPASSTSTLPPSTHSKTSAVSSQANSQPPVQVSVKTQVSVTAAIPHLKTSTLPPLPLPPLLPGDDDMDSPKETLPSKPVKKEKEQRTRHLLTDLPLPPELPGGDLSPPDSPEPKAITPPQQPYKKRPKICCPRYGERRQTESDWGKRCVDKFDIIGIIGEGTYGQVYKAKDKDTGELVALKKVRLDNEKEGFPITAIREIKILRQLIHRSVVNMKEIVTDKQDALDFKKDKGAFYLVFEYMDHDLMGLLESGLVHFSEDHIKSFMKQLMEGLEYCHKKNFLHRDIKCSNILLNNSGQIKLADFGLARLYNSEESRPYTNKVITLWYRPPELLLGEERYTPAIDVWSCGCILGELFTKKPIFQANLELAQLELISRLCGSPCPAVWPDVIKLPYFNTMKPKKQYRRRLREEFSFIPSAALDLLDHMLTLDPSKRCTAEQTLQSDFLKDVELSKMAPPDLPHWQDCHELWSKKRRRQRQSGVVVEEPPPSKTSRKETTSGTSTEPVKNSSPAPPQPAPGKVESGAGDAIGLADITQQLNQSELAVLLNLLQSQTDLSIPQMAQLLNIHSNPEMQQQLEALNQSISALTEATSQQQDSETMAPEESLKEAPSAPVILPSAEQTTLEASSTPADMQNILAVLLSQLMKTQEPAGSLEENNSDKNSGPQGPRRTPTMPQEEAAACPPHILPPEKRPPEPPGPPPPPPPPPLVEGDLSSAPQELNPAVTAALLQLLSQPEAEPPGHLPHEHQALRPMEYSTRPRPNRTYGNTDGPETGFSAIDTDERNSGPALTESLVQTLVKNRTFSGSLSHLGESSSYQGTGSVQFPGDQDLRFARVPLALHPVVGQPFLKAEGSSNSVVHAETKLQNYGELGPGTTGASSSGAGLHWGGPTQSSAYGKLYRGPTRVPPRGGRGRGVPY
T1 sequence (O75909 whole entry partner): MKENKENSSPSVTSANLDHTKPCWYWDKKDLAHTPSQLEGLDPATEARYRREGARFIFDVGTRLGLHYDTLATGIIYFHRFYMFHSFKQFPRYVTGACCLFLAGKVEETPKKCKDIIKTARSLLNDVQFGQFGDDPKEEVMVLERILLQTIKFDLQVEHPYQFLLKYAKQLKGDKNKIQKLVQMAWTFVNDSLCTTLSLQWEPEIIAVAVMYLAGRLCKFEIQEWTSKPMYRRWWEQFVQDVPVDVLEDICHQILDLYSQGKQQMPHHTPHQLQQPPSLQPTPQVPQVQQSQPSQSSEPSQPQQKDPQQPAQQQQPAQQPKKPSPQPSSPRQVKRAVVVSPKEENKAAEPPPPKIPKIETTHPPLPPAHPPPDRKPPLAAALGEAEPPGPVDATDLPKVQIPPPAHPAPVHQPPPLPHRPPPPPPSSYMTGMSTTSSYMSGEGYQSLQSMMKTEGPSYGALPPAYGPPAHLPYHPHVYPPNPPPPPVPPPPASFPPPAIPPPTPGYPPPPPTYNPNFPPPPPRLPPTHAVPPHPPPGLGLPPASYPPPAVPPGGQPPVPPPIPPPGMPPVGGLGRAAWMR
In short: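 DC50 is the degrader concentration that halves nuclear CDK12 immunofluorescence relative to controls, measured by high-content imaging. CAL-120 cells were exposed to compound for 24 h at 37 °C before PFA fixation, and signal was normalized to DMSO and control wells.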

[2] = test system: MDA-MB-231, human breast cancer cells; assay: Proliferation assay MDA-MB-231 (crystal violet, 4 days); type: cell-based; settings: Homo sapiens, MDA-MB-231, 96 h, MDA-MB-231 cells, median, read-out: Prolif-MDA MB-231, IC50-[mol/l] (median)
In short: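 Growth was measured by crystal violet staining after cells had been treated with compounds (0.01-10 µmol/L, 0.1% DMSO) for 4 days, beginning 24 h after seeding. Values were normalized to a zero-point plate and to untreated controls, and IC50 values were derived by a four-parameter fit.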

[3] = target: T2, CDK9/CycT1 (Homo sapiens, UniProt P50750); assay: CDK9/CycT1 high ATP kinase assay (TR-FRET, 2 mM ATP); type: biochemical; settings: 2 mM ATP (high ATP); median; read-out: CDK9/CyclinT1, 2 mM ATP (high ATP), IC50 (median)
T2 construct: Recombinant full-length His-tagged human CDK9 and CycT1; purchased Life Technologies PV4131; host or cells: insect cells
T2 sequence (P50750 whole entry): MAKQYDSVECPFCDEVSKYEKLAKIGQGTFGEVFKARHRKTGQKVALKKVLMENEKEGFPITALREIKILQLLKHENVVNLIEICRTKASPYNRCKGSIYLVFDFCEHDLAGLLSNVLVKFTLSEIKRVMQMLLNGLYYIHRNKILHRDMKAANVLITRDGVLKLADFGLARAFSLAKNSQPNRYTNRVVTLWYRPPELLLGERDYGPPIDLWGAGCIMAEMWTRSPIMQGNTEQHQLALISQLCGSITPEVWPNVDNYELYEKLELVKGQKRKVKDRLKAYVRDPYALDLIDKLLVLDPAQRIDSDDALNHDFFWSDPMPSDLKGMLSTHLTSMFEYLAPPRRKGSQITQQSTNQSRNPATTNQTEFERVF
T2 sequence (O60563 whole entry partner): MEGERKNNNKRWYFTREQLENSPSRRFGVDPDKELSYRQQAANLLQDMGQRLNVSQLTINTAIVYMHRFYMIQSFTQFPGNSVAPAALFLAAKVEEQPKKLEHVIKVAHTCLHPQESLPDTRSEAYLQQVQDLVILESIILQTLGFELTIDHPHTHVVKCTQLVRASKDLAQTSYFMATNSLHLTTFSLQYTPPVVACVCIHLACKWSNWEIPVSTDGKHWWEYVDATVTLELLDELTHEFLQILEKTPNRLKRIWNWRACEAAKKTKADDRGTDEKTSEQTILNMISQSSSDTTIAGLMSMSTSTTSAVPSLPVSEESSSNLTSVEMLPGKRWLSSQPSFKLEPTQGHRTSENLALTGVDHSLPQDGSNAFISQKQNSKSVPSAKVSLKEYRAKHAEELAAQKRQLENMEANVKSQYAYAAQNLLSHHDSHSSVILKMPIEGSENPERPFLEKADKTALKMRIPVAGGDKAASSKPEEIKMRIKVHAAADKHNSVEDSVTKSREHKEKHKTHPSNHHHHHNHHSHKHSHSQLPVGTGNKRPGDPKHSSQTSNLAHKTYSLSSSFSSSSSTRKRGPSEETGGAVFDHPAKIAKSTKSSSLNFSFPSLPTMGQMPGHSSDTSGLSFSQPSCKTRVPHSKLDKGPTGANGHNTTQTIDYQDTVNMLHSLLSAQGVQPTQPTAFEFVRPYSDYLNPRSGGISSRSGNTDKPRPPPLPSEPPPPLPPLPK
In short: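 Full-length His-tagged human CDK9/CycT1 (insect cell, ~0.5 μg/mL) preincubated 15 min at 22 °C with compound in Tris pH 8.0, MgCl2, DTT buffer before reaction with biotinylated peptide substrate at high ATP (2 mM).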

Compound | DC50 [1] [µM] | (IC50 CDK12 high ATP) to (Degradation DC50 CDK12) ratio [1] | IC50 [2] [µM] | IC50 [3] [µM]
CCc1cnn2c(NCc3nc4c(F)c(F)ccc4[nH]3)nc(N3CCN(C)CC3)nc12.O=CO [Example 435, formic acid N-[(4,5-difluoro-1H-benzimidazol-2-yl)methyl]-8-ethyl-2-(4-methylpiperazin-1-yl)pyrazolo[1,5-a][1,3,5]triazin-4-amine] | 0.000591 | 9674 | 0.00425 | > 20
CN1CCN(c2nc(NCc3nc4cc(C(F)(F)F)ccc4[nH]3)n3ncc(C4CC4)c3n2)CC1 [Example 313, 8-cyclopropyl-2-(4-methylpiperazin-1-yl)-N-{[5-(trifluoromethyl)-1H-benzimidazol-2-yl]methyl}pyrazolo[1,5-a][1,3,5]triazin-4-amine] | 0.0268 | 679 | 0.0156 | > 20
CC(C)c1cnn2c(NCc3nc4ccccc4[nH]3)nc(N3CCOCC3)nc12 [Example 1, N-[(1H-benzimidazol-2-yl)methyl]-2-(morpholin-4-yl)-8-(propan-2-yl)pyrazolo[1,5-a][1,3,5]triazin-4-amine] | 0.0111 | 537 | 0.0864 | > 20
CC(C)c1cnn2c(NCc3nc4ccccc4[nH]3)nc(N3CCOC(C)(C)C3)nc12 [Example 12, N-[(1H-benzimidazol-2-yl)methyl]-2-(2,2-dimethylmorpholin-4-yl)-8-(propan-2-yl)pyrazolo[1,5-a][1,3,5]triazin-4-amine] | 0.0427 | 399 | 0.373 | > 20
Fc1cccc(-c2cnc(CNc3nc(N4CCOCC4)nc4c(Br)cnn34)[nH]2)c1 [Example 79, 8-bromo-N-{[5-(3-fluorophenyl)-1H-imidazol-2-yl]methyl}-2-(morpholin-4-yl)pyrazolo[1,5-a][1,3,5]triazin-4-amine] | 0.00123 | 460 | – | 2.53
Fc1cccc(-c2cnn3c(NCc4nc5ccccc5[nH]4)nc(N4CCOCC4)nc23)c1 [Example 91, N-[(1H-benzimidazol-2-yl)methyl]-8-(3-fluorophenyl)-2-(morpholin-4-yl)pyrazolo[1,5-a][1,3,5]triazin-4-amine] | 0.0428 | >133 | – | > 20
O[C@@H]1CCN(c2nc(NCc3nc4ccccc4[nH]3)n3ncc(Br)c3n2)C1 [Example 202, (3R)-1-(4-{[(1H-benzimidazol-2-yl)methyl]amino}-8-bromopyrazolo[1,5-a][1,3,5]triazin-2-yl)pyrrolidin-3-ol] | 0.0318 | 518 | 0.295 | > 20
Fc1ccc2[nH]c(CNc3nc(N4CCOCC4)nc4c(-c5cnn(C(F)F)c5)cnn34)nc2c1F [Example 422, N-[(4,5-difluoro-1H-benzimidazol-2-yl)methyl]-8-[1-(difluoromethyl)-1H-pyrazol-4-yl]-2-(morpholin-4-yl)pyrazolo[1,5-a][1,3,5]triazin-4-amine] | 0.00681 | 239 | 0.0201 | > 20
Fc1ccccc1-c1nnc(CNc2nc(N3CCOCC3)nc3c(Br)cnn23)[nH]1 [Example 75, 8-bromo-N-{[5-(2-fluorophenyl)-4H-1,2,4-triazol-3-yl]methyl}-2-(morpholin-4-yl)pyrazolo[1,5-a][1,3,5]triazin-4-amine] | 0.00738 | >511 | – | > 6.15
CN1CCN(c2nc(NCc3nc4cc(Cl)c(Cl)cc4[nH]3)n3ncc(C4CC4)c3n2)CC1 [Example 305, 8-cyclopropyl-N-[(5,6-dichloro-1H-benzimidazol-2-yl)methyl]-2-(4-methylpiperazin-1-yl)pyrazolo[1,5-a][1,3,5]triazin-4-amine] | – | – | 0.00594 | > 20
FC(F)(F)Oc1ccccc1-c1nnc(CNc2nc(N3CCOCC3)nc3c(Br)cnn23)[nH]1 [Example 74, 8-bromo-2-(morpholin-4-yl)-N-({5-[2-(trifluoromethoxy)phenyl]-4H-1,2,4-triazol-3-yl}methyl)pyrazolo[1,5-a][1,3,5]triazin-4-amine] | 0.0574 | – | – | > 20
CC(C)c1cnn2c(NCc3nc4ccccc4[nH]3)nc(N(C)C)nc12 [Example 3, N^4-[(1H-benzimidazol-2-yl)methyl]-N^2,N^2-dimethyl-8-(propan-2-yl)pyrazolo[1,5-a][1,3,5]triazine-2,4-diamine] | 0.0945 | >212 | – | > 20
CC1(C)CN(c2nc(NCc3nnc(-c4ccccc4)[nH]3)n3ncc(Br)c3n2)CCO1 [Example 68, 8-bromo-2-(2,2-dimethylmorpholin-4-yl)-N-[(5-phenyl-4H-1,2,4-triazol-3-yl)methyl]pyrazolo[1,5-a][1,3,5]triazin-4-amine] | 0.0133 | 415 | – | 5.34
CC(C)c1cnn2c(NCc3nc4ccccc4[nH]3)nc(N3CCN(C)CC3)nc12 [Example 2, N-[(1H-benzimidazol-2-yl)methyl]-2-(4-methylpiperazin-1-yl)-8-(propan-2-yl)pyrazolo[1,5-a][1,3,5]triazin-4-amine] | 0.00846 | >2365 | – | > 20
Brc1cnn2c(NCc3ncc(-c4cccnc4)[nH]3)nc(N3CCOCC3)nc12 [Example 84, 8-bromo-2-(morpholin-4-yl)-N-{[5-(pyridin-3-yl)-1H-imidazol-2-yl]methyl}pyrazolo[1,5-a][1,3,5]triazin-4-amine] | 0.0212 | 98 | – | 3.44
Brc1cnn2c(NCc3ncc(-c4ccccn4)[nH]3)nc(N3CCOCC3)nc12 [Example 90, 8-bromo-2-(morpholin-4-yl)-N-{[5-(pyridin-2-yl)-1H-imidazol-2-yl]methyl}pyrazolo[1,5-a][1,3,5]triazin-4-amine] | 0.00405 | 1092 | – | 9.35
COC1CCN(c2nc(NCc3nc4ccccc4[nH]3)n3ncc(Br)c3n2)CC1 [Example 62, N-[(1H-benzimidazol-2-yl)methyl]-8-bromo-2-(4-methoxypiperidin-1-yl)pyrazolo[1,5-a][1,3,5]triazin-4-amine] | 0.01 | 569 | – | > 20
